Test results: patent publication US7799319B2, “Method for measuring skin absorbability” (Shiseido Company, Ltd., priority 2000, dated 2010)
Where two headings read alike, the source gives them in different places.

Columns and labels:
[1] = Measurement method 1-1: in vitro skin-pore absorption into hair follicles and skin tissue; format: in vitro ADME, miniature pig
Text: In measurement method 1-1, the skin of a model animal or the skin reconstructed from skin cells may be employed as a skin model. The model animal from which the skin is taken is not particularly limited, and pig, human, cattle, mouse, or rat are all potential donors. In measurement method 1-1, the skin of a hairy animal is usually employed in order to evaluate the penetrability of a drug through skin pores into hair follicles. Therefore, a mutated hairless animal is usually unsuitable for the model animal. […] Therefore, other than human, pig is preferably employed as a model animal.
The skin is not particularly limited, so long as the skin satisfies the above condition. For example, as described below in the Example, a skin model may be fixed onto a collagen gel.
The conditions for the application of the substance may be arbitrarily determined in accordance with the type of the substance or the object. Usually, the skin to which the substance is applied is incubated at about 37° C. (near the temperature of the human body) over a predetermined time period. The incubation time varies with the intended product form of the substance.
The portion at which the delivery amount of the substance is measured is limited to the region corresponding to the dermis of the skin, since in the region corresponding to the stratum corneum or epidermis of the skin, the hair follicle may be contaminated with epidermal tissue debris or excretions from the sebaceous glands, and thus the exact delivery amount of the substance is difficult to measure.
The method for measuring the delivery amount of the substance is not particularly limited. For example, liquid chromatography (including high-performance liquid chromatography), a fluorescent antibody technique using a fluorescence-labeled antibody, mass spectrometry, or a method using a radioisotope may be employed. Of these, liquid chromatography is preferable, in consideration of convenience.
In the evaluation test, 0.5% pantothenyl ethylether (90% ethanol product) was employed as a substance to be tested, and the skin of a miniature pig (Yucatan Micropig Skin Set: product of Charles River) was employed as a skin model.
The test sample (20 μl) was applied onto the skin sample comprising skin pores 14. The substance was applied onto a region (diameter: 1.5 cm) of the sample; i.e., within an assay ring to which silicon grease was applied. The resultant skin sample 10 was allowed to stand at 37° C. for 16 hours. After having being washed, the sample 10 was separated into the stratum corneum 11, the epidermis 12, and the dermis 13. Subsequently, hair follicles 15 were removed from the dermis 13, and the amount of pantothenyl ethylether contained in the follicles was measured, as a delivery amount per unit weight of the hair follicle, by means of liquid chromatography (NANOSPACE (product of Shiseido Co., Ltd.), eluent: (CH3CN:H2O=3:7), detection wavelength: 210 nm).
The skin sample 10 of the miniature pig was derived from the upper back and lower back (n=3).

[2] = in vivo
Description: (§1) (2) an in vivo quantification method (hereinafter referred to as “measurement method 1-2”) in which the amount of a substance (e.g., a drug) which is penetrated into the hair follicle is determined by applying the substance to the human scalp, removing the hair follicle from the scalp, and measuring the concentration of the substance which is delivered to the hair follicle.
(§2) In measurement method 1-2, a method for the application of a substance such as a drug to the human scalp may be arbitrarily determined in accordance with the characteristics or the intended product form of the substance.
(§3) After the substance is applied to a person participating in the test, several hair strands from the person are removed, and the thus-obtained hair follicles may be stored as hair shafts and/or outer root sheaths. The amount of the substance which is delivered to the subcutaneous portion of the hair shaft and/or the outer root sheath is measured, and the thus-obtained delivery amount of the substance may be employed as an index of the skin-pore absorbability of the substance.
(§4) The delivery amount of the substance may be measured in a manner similar to that of measurement method 1-1.
(§5) Thirty male panelists were enrolled in the test. […] Each of the test samples (0.5 ml for each) was applied to the scalp (area: 1 cm^2) of each male panelist, and then the scalp was left for 16 hours. […]

[3] = Measurement method 1-2: in vivo skin-pore absorption, human scalp hair follicles; conditions: 5% isostearyl alcohol, 1% pantothenyl ethylether, 0.5 ml on scalp, 16 hours, vs control, FIG. 8
Description: as §1, §2, §3, §4, §5

[4] = Measurement method 2: sebum transferability through keratinized silicone film into artificial sebum (Franz cell kit); format: in vitro ADME; conditions: 5% isostearyl alcohol, 2% minoxidil composition, 20 μl, 37° C., 24 hours, FIG. 12
Text: The present invention also provides a method for the measurement of skin absorbability of a substance (hereinafter the method will be referred to as “measurement method 2”), which comprises bringing a substance into contact with a first surface of a film that mimics the skin surface layer, a second surface of the film being brought into contact with artificial sebum; and using the degree of transfer of the substance to the artificial sebum as an index, to thereby evaluate the sebum transferability of the substance.
The sebum transferability of a substance may be evaluated through the following procedure: the substance is applied to the stratum corneum side of the thin film, the opposite side of the stratum corneum side being brought into contact with the artificial sebum; the degree of transfer of the substance to the artificial sebum, for example, the amount of the substance transferred to the sebum per unit time, i.e., the amount of the substance contained in the sebum is measured; and the amount of the substance in the sebum is employed as an index, to thereby evaluate the sebum transferability of the substance.
1. […]
The test was carried out under the aforementioned conditions. […] The degree of transfer of minoxidil to the artificial sebum was evaluated on the basis of the concentration of minoxidil contained in the sebum after the elapse of a specified time period. […]

SMILES | skin-pore absorption of pantothenyl ethylether ([1]; 1% terpene refreshing agent, 0.5% pantothenyl ethylether, vs control, FIGS. 11A and 11B) | skin-pore absorption of pantothenyl ethylether [2] | concentration of pantothenyl ethylether delivered to the hair follicles (hair shafts and outer root sheaths) [3] | skin-pore absorption of minoxidil (concentration delivered to the hair follicles) ([1]; 5% isostearyl alcohol compared with 5% amine oxide composition, 0.5% minoxidil, FIG. 9B) | skin-pore absorption of β-glycyrrhetinic acid (concentration delivered to the hair follicles) ([1]; 5% isostearyl alcohol compared with 5% amine oxide composition, 0.5% β-glycyrrhetinic acid, FIG. 9A) | concentration of pantothenyl ethylether delivered to hair follicles ([1]; 5% isostearyl alcohol composition vs control, 0.5% pantothenyl ethylether, 20 μl, 37° C., 16 hours, FIG. 4) | concentration of pantothenyl ethylether delivered to the stratum corneum ([1]; 5% isostearyl alcohol composition vs control, FIG. 5A) | concentration of pantothenyl ethylether delivered to the epidermis ([1]; 5% isostearyl alcohol composition vs control, FIG. 5B) | concentration of pantothenyl ethylether delivered to the dermis ([1]; 5% isostearyl alcohol composition vs control, FIG. 5C) | sebum transferability of minoxidil (concentration of minoxidil in the artificial sebum) [4]
CC12CCC(CC1=O)C2(C)C (stereo not shown) [camphor] | accelerates | accelerates | – | – | – | – | – | – | – | –
CC(C)CCCCCCCCCCCCCCCO [isostearyl alcohol] | – | – | increases | accelerates | accelerates | increases significantly | decreased | decreased | slightly increased | enhances
